# Measured values from patent publication US11136311B2, “Heteroaromatic derivatives as NIK inhibitors” (Janssen Pharmaceutica NV, priority 2016, dated 2021).
# Read-outs that look alike come from different tables or passages of the source.
# Columns and labels:
# [1] = biological target: recombinant human NF-kappaB-inducing kinase (NIK/MAP3K14) (Homo sapiens (Human), UniProt Q99558); test: Inhibition of auto-phosphorylation of recombinant human NIK/MAP3K14 activity (AlphaScreen); format: biochemical; details: averaged values over all measurements on all batches
# Sequence of recombinant human NF-kappaB-inducing kinase (NIK/MAP3K14) (Q99558 whole entry): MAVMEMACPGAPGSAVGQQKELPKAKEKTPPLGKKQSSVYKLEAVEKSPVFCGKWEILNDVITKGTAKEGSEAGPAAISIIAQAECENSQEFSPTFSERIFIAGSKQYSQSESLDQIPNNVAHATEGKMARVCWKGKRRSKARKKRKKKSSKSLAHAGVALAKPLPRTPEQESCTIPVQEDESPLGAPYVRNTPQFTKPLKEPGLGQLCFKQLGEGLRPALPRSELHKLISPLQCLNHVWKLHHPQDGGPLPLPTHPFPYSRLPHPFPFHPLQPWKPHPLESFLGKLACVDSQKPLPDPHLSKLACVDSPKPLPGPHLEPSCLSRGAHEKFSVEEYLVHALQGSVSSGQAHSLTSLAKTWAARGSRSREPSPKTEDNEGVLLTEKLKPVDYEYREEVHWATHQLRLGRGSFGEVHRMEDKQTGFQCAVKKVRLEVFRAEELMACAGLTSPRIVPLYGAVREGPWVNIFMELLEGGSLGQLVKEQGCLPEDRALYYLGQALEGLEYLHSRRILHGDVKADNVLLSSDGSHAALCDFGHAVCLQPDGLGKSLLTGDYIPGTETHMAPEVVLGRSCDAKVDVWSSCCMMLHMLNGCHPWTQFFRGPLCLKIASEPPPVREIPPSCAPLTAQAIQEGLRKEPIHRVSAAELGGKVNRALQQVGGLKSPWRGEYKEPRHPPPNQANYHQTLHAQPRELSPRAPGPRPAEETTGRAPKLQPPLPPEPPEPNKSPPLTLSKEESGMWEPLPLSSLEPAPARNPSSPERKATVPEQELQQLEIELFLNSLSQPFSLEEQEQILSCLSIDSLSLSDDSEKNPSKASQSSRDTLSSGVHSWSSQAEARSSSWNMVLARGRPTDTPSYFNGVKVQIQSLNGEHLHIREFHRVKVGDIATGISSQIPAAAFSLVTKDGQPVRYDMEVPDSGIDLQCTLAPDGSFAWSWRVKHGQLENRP
# Procedure: Inhibition of auto-phosphorylation of recombinant human NF-kappaB-inducing kinase (NIK/MAP3K14) activity (AlphaScreen®)
# NIK/MAP3K14 auto-phosphorylation activity was measured using the AlphaScreen® (αscreen) format (Perkin Elmer). All compounds tested were dissolved in dimethyl sulfoxide (DMSO) and further dilutions were made in assay buffer. Final DMSO concentration was 1% (v/v) in assays. Assay buffer was 50 mM Tris pH 7.5 containing 1 mM EGTA (ethylene glycol tetraacetic acid), 1 mM DTT (dithiothreitol), 0.1 mM Na3VO4, 5 mM MgCl2, 0.01% Tween® 20. Assays were carried out in 384 well Alphaplates (Perkin Elmer). Incubations consisted of compound, 25 microM Adenosine-5′-triphosphate (ATP), and 0.2 nM NIK/MAP3K14. Incubations were initiated by addition of GST-tagged NIK/MAP3K14 enzyme, carried out for 1 h at 25° C. and terminated by addition of stop buffer containing anti-phospho-IKK Ser176/180 antibody. Protein A Acceptor and Glutathione-Donor beads were added before reading using an EnVision® Multilabel Plate Reader (Perkin Elmer). Signal obtained in the wells containing blank samples was subtracted from all other wells and IC50's were determined by fitting a sigmoidal curve to % inhibition of control versus Log10 compound concentration.
# JJN-3 cells = test: Antiproliferative activity on JJN-3 (NIK translocated) multiple myeloma cells (CellTiter-Glo); format: cell-based, human; details: JJN-3 (NIK translocated) cells, 96 hr, averaged values, read-out: JJN-3 Proliferation inhibition (IC50 (nM))
# Procedure: (§1) Determination of antiproliferative activity on JJN-3 (NIK translocated) and KMS12-BM (NIK WT) multiple myeloma cells
# (§2) All compounds tested were dissolved in DMSO and further dilutions were made in culture medium. Final DMSO concentration was 0.3% (v/v) in cell proliferation assays. Viability was assessed using CellTiter-Glo cell viability assay kit (Promega). The human JJN-3 and KMS12-BM cells (DSMZ) were cultured in RPMI 1640 medium supplemented with 2 mM L-glutamine, and 10% fetal calf serum (PAA). Cells were routinely kept as suspension cells at 37° C. in a humidified 5% CO2 atmosphere. Cells were passaged at a seeding density of 0.2×10^6/ml twice a week. Cells were seeded in black tissue culture treated 96-well plates (Perkin Elmer). Densities used for plating ranged from 15000 (JJN3) to 20000 (KMS12BM) cells per well in a total volume of 135 μl medium. Drugs and/or solvents were added (15 μl) to a final volume of 150 μl. Following 96 hr of treatment, plates were removed from the incubator and allowed to equilibrate to room temperature for approx 10 min. 75 μl CellTiter-Glo reagent was added to each well that was then covered (Perkin Elmer Topseal) and shaken on plate shaker for 10 min. Luminescence was measured on a HTS Topcount (Perkin Elmer). Within an experiment, the results for each treatment were the mean of 2 replicate wells. For initial screening purposes, compounds were tested using a 9 point dilution curve (serial 1:3 dilutions). For each experiment, controls (containing no drug) and a blank incubation (containing cells read at the time of compound addition) were run in parallel. The blank value was subtracted from all control and sample values. For each sample, the mean value for cell growth (in relative light units) was expressed as a percentage of the mean value for cell growth of the control.
# KMS12-BM cells = test: Antiproliferative activity on KMS12-BM (NIK WT) multiple myeloma cells (CellTiter-Glo); format: cell-based, human; details: KMS12-BM (NIK WT) cells, 96 hr, averaged values, read-out: KMS-12 Proliferation inhibition (IC50 (nM))
# Procedure: as §1, §2
Structure (SMILES),IC50 [1] [nM],"IC50 (JJN-3 cells; Homo sapiens, JJN-3, 96 h) [nM]","IC50 (KMS12-BM cells; Homo sapiens, KMS-12-BM, 96 h) [nM]",IC50 (JJN-3 cells) [nM],IC50 (KMS12-BM cells) [nM]
CCOCCn1nc(C)cc1Nc1nccc(-c2cc(C#N)c3c(c2)[C@@](C)(CO)CN3)n1 [Compound 44],4.5,324,8710,,
CN(C)C(=O)c1cc(Nc2nccc(-c3cc(C#N)c4c(c3)[C@@](C)(CO)CN4)n2)nn1C [Compound 45],7.6,1320,4170,,
COCCCn1nccc1Nc1nccc(-c2cc(C#N)c3c(c2)[C@@](C)(CO)CN3)n1 [Compound 46],6.6,158,2400,,
COCCCn1nccc1Nc1nccc(-c2cc(C#N)c3c(c2)[C@](C)(CO)CN3)n1 [Compound 47],44,1550,> 10000,,
CC(C)n1ccc(Nc2nccc(-c3cc(C#N)c4c(c3)[C@@](C)(CO)CN4)n2)n1 [Compound 48],5.1,89,263,,
Cn1nc(Nc2nccc(-c3cc(C#N)c4c(c3)C(C)(CO)CN4)n2)cc1C(=O)NC1CCOCC1 (stereo not drawn) [Compound 50],3.8,316,> 10000,,
CNC(=O)c1nn(C)cc1Nc1nccc(-c2cc(C#N)c3c(c2)[C@@](C)(CO)CN3)n1 [Compound 53],3.5,851,~5010,,
COCCCn1nc(C)cc1Nc1nccc(-c2cc(C#N)c3c(c2)[C@](C)(CO)CN3)n1 [Compound 54],11,525,> 10000,,
Cc1cc(Nc2nccc(-c3cc(C#N)c4c(c3)[C@@](C)(CO)CN4)n2)n(CC(C)C)n1 [Compound 55],4.4,59,~2040,,
CNC(=O)c1cc(Nc2nccc(-c3cc(C#N)c4c(c3)[C@@](C)(CO)CN4)n2)n(C)n1 [Compound 56],3.1,~363,~1410,,
COCCn1nc(C)cc1Nc1nccc(-c2cc(C#N)c3c(c2)[C@](C)(CO)CN3)n1 [Compound 57],28,~933,> 10000,,
COC(C)(C)CCn1nc(Nc2nccc(-c3cc(C#N)c4c(c3)[C@@](C)(CO)CN4)n2)cc1C [Compound 58],1.5,69,468,,
COC(C)(C)CCn1nc(C)cc1Nc1nccc(-c2cc(C#N)c3c(c2)[C@@](C)(CO)CN3)n1 [Compound 59],5,68,1950,,
Cc1cc(Nc2nccc(-c3cc(C#N)c4c(c3)[C@@](C)(CO)CN4)n2)n(CC2CCOCC2)n1 [Compound 61],4.4,162,355,,
Cc1cc(Nc2nccc(-c3cc(C#N)c4c(c3)[C@@](C)(CO)CN4)n2)n(C2CCN(C)CC2)n1 [Compound 62],23,204,269,,
Cc1cc(Nc2nccc(-c3cc(C#N)c4c(c3)[C@@](C)(CO)CN4)n2)n(C2CCOCC2)n1 [Compound 63],9.8,692,6310,,
Cn1cc(Nc2nccc(-c3cc(C#N)c4c(c3)[C@@](C)(CO)CN4)n2)c(C(F)(F)F)n1 [Compound 64],1.9,240,3240,,
CC(C)(c1cc(Nc2nccc(-c3cc(C#N)c4c(c3)[C@@](C)(CO)CN4)n2)[nH]n1)S(C)(=O)=O [Compound 65],10,~1410,> 10000,,

Structure (SMILES),IC50 [1] [nM],"IC50 (JJN-3 cells; Homo sapiens, JJN-3, 96 h) [nM]","IC50 (KMS12-BM cells; Homo sapiens, KMS-12-BM, 96 h) [nM]",IC50 (JJN-3 cells) [nM],IC50 (KMS12-BM cells) [nM]
COCCn1nc(C2CCOCC2)cc1Nc1nccc(-c2cc(C#N)c3c(c2)[C@@](C)(CO)CN3)n1 [Compound 66],13,324,> 10000,,
Cn1nc(C2CCOCC2)cc1Nc1nccc(-c2cc(C#N)c3c(c2)[C@@](C)(CO)CN3)n1 [Compound 67],1.6,141,912,,
Cc1nn(C2CCOCC2)cc1Nc1nccc(-c2cc(C#N)c3c(c2)[C@@](C)(CO)CN3)n1 [Compound 74],3,324,~3890,,
Cc1nn(CC2CCOCC2)cc1Nc1nccc(-c2cc(C#N)c3c(c2)[C@@](C)(CO)CN3)n1 [Compound 75],13,2090,~6030,,
Cc1cc(Nc2nccc(-c3cc(C#N)c4c(c3)[C@@](C)(CO)CN4)n2)n(CC(=O)N(C)C(C)C)n1 [Compound 79],8.3,2240,> 10000,,
Cc1cc(Nc2nccc(-c3cc(C#N)c4c(c3)[C@@](C)(CO)CN4)n2)n(CC(=O)N(C2CC2)C2CC2)n1 [Compound 80],3.9,1100,6170,,
Cn1cc(Nc2nccc(-c3cc(C#N)c4c(c3)[C@@](C)(CO)CN4)n2)c(CN2CCCC2=O)n1 [Compound 90],5.7,1550,5130,,
Cc1nnc(Nc2nccc(-c3cc(C#N)c4c(c3)C(C)(CO)CN4)n2)o1 (stereo not drawn) [Compound 142],42,> 10000,~9770,,
Cn1ccc(Nc2ncc(F)c(-c3cc(C#N)c4c(c3)C(C)(CO)CN4)n2)n1 (stereo not drawn) [Compound 143],1.3,~81,204,,
Cn1ccc(Nc2ncc(F)c(-c3cc(C#N)c4c(c3)[C@@](C)(CO)CN4)n2)n1 [Compound 144],2,36,44,,
Cc1csc(Nc2nccc(-c3cc(C#N)c4c(c3)[C@@](C)(CO)CN4)n2)n1 [Compound 145],1.5,71,~3390,,
Cc1nscc1Nc1nccc(-c2cc(C#N)c3c(c2)[C@@](C)(CO)CN3)n1 [Compound 146],1.3,102,589,,
Cc1coc(Nc2nccc(-c3cc(C#N)c4c(c3)[C@@](C)(CO)CN4)n2)n1 [Compound 147],9.6,~436,~5010,,
Cc1nc(Nc2nccc(-c3cc(C#N)c4c(c3)[C@@](C)(CO)CN4)n2)sc1C [Compound 148],0.8,93,282,,
CN(CCO)C[C@]1(C)CNc2c(C#N)cc(-c3ccnc(Nc4ccn(C)n4)n3)cc21 [Compound 173],162,6030,~6310,,
CN(CCO)C[C@@]1(C)CNc2c(C#N)cc(-c3ccnc(Nc4ccn(C)n4)n3)cc21 [Compound 174],35,,,1550,3160
Cc1cc(Nc2nccc(-c3cc(C#N)c4c(c3)[C@@](C)(CO)CN4)n2)n(CC(=O)N2CCCCC2)n1 [Compound 179],6.2,832,~10000,,
Cn1ccc(Nc2ncnc(-c3cc(C#N)c4c(c3)C(C)(CO)CN4)n2)n1 (stereo not drawn) [Compound 216],7.8,537,2630,,
